According to ChEMBL document CHEMBL1201862, “PubChem BioAssay data set” (2004):
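Briefly, cells in 96-well plates were exposed to five compound concentrations for 48 h, and endpoints were estimated by linear interpolation. GI50 = concentration required for 50% inhibition of growth.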 Active and inactive are the calls of the source. Rule as the data show it: active = GI50 up to about 1.1 µM and inactive = higher.

What was measured:
Test in all cases: inhibition of tumour cell growth, NCI panel, 48 h
786-0 = test system: 786-0
A498 = test system: A498
A549 = test system: A549
ACHN = test system: ACHN
CAKI-1 = test system: CAKI-1
CCRF-CEM = test system: CCRF-CEM
COLO 205 = test system: COLO 205
DLD-1 = test system: DLD-1
DMS-114 = test system: DMS-114
DMS-273 = test system: DMS-273
EKVX = test system: EKVX
HCC 2998 = test system: HCC 2998
HCT-116 = test system: HCT-116
HCT-15 = test system: HCT-15
HL-60 = test system: HL-60
HOP-18 = test system: HOP-18
HOP-62 = test system: HOP-62
HOP-92 = test system: HOP-92
HT-29 = test system: HT-29
IGROV-1 = test system: IGROV-1
K562 = test system: K562
KM-20L2 = test system: KM-20L2
KM12 = test system: KM12
LOX IMVI = test system: LOX IMVI
LXFL 529 = test system: LXFL 529
M14 = test system: M14
M19-MEL = test system: M19-MEL
MOLT-4 = test system: MOLT-4
Malme-3M = test system: Malme-3M
NCI-H226 = test system: NCI-H226
NCI-H23 = test system: NCI-H23
NCI-H460 = test system: NCI-H460
NCI-H522 = test system: NCI-H522
OVCAR-3 = test system: OVCAR-3
OVCAR-4 = test system: OVCAR-4
OVCAR-5 = test system: OVCAR-5
RPMI-8226 = test system: RPMI-8226
RXF 631 = test system: RXF 631
SF-268 = test system: SF-268
SF-295 = test system: SF-295
SF-539 = test system: SF-539
SK-MEL-28 = test system: SK-MEL-28
SK-MEL-2 = test system: SK-MEL-2
SK-MEL-5 = test system: SK-MEL-5
SK-OV-3 = test system: SK-OV-3
SN12C = test system: SN12C
SNB-19 = test system: SNB-19
SNB-75 = test system: SNB-75
SNB-78 = test system: SNB-78
SR = test system: SR
SW-620 = test system: SW-620
TK-10 = test system: TK-10
U-251 = test system: U-251
UACC-257 = test system: UACC-257
UACC-62 = test system: UACC-62
UO-31 = test system: UO-31
OVCAR-8 = test system: OVCAR-8
RXF 393 = test system: RXF 393
XF498 = test system: XF498

In the case of `O=C1C(Cl)=C(Cl)C(=O)N1c1ccc(Cl)c(Cl)c1Cl`, the GI50 (786-0) is reported as 44.5 µM (inactive), the GI50 (A498) is reported as > 100 µM (inactive) and the GI50 (A549) is reported as > 100 µM (inactive). The GI50 (ACHN) was 75 µM (inactive), the GI50 (CAKI-1) was 25.5 µM (inactive) and the GI50 (CCRF-CEM) was 21.7 µM (inactive). The GI50 (COLO 205) was 29.9 µM (inactive), the GI50 (DLD-1) was 34.9 µM (inactive) and the GI50 (DMS-114) was 32.7 µM (inactive). The GI50 (DMS-273) was > 100 µM (inactive), the GI50 (EKVX) was 61.5 µM (inactive) and the GI50 (HCC 2998) was > 100 µM (inactive). For the same compound, the GI50 (HCT-116) was 85.9 µM (inactive), the GI50 (HCT-15) was 31.1 µM and the GI50 (HL-60) was 24.3 µM (inactive). For the same compound, the GI50 (HOP-18) was > 100 µM (inactive), the GI50 (HOP-62) was > 100 µM (inactive) and the GI50 (HOP-92) was 24.7 µM (inactive). For the same compound, the GI50 (HT-29) was 51.4 µM (inactive), the GI50 (IGROV-1) was > 100 µM (inactive) and the GI50 (K562) was 30.5 µM (inactive). For the same compound, the GI50 (KM-20L2) was > 100 µM (inactive), the GI50 (KM12) was > 100 µM (inactive) and the GI50 (LOX IMVI) was 69 µM (inactive). For the same compound, the GI50 (LXFL 529) was 28.1 µM (inactive), the GI50 (M14) was 52.7 µM (inactive) and the GI50 (M19-MEL) was 88.3 µM (inactive). For the same compound, the GI50 (MOLT-4) was 32.6 µM (inactive), the GI50 (Malme-3M) was 31.6 µM (inactive) and the GI50 (NCI-H226) was > 100 µM (inactive). The GI50 (NCI-H23) was 61.8 µM (inactive), the GI50 (NCI-H460) was > 100 µM (inactive) and the GI50 (NCI-H522) was 14.4 µM (inactive). The GI50 (OVCAR-3) was 41.6 µM (inactive), the GI50 (OVCAR-4) was 28.4 µM (inactive) and the GI50 (OVCAR-5) was > 100 µM (inactive). The GI50 (RPMI-8226) was 34 µM (inactive), the GI50 (RXF 631) was > 100 µM (inactive) and the GI50 (SF-268) was 38 µM (inactive). For the same compound, the GI50 (SF-295) was > 100 µM (inactive), the GI50 (SF-539) was > 100 µM (inactive) and the GI50 (SK-MEL-28) was > 100 µM (inactive). The GI50 (SK-MEL-2) was > 100 µM (inactive), the GI50 (SK-MEL-5) was > 100 µM (inactive) and the GI50 (SK-OV-3) was > 100 µM (inactive). The GI50 (SN12C) was 58.1 µM (inactive), the GI50 (SNB-19) was 57.8 µM (inactive) and the GI50 (SNB-75) was > 100 µM (inactive). For the same compound, the GI50 (SNB-78) was > 100 µM (inactive), the GI50 (SR) was 26.9 µM (inactive) and the GI50 (SW-620) was 35.5 µM (inactive). The GI50 (TK-10) was > 100 µM (inactive), the GI50 (U-251) was > 100 µM (inactive) and the GI50 (UACC-257) was > 100 µM (inactive). For the same compound, the GI50 (UACC-62) was 30.5 µM (inactive) and the GI50 (UO-31) was > 100 µM (inactive).

`CCN(CC)CCOC(c1ccccc1)c1ccccc1.CCOC(=O)Nc1ccc(S(=O)(=O)NCCCl)cc1.CCOC(=O)Nc1ccc(S(=O)(=O)NCCCl)cc1.Nc1ccc(C(=O)O)c(O)c1` was tested, and the GI50 (786-0) was > 100 µM (inactive), the GI50 (A498) was > 100 µM (inactive) and the GI50 (A549) was > 100 µM (inactive). The GI50 (ACHN) was > 100 µM (inactive), the GI50 (CAKI-1) was > 100 µM (inactive) and the GI50 (CCRF-CEM) was > 100 µM (inactive). The GI50 (COLO 205) was > 100 µM (inactive), the GI50 (DLD-1) was > 100 µM (inactive) and the GI50 (DMS-114) was > 100 µM (inactive). For the same compound, the GI50 (EKVX) was > 100 µM (inactive), the GI50 (HCC 2998) was > 100 µM (inactive) and the GI50 (HCT-116) was > 100 µM (inactive). The GI50 (HCT-15) was greater than 100 µM, the GI50 (HL-60) was > 100 µM (inactive) and the GI50 (HOP-18) was > 100 µM (inactive). For the same compound, the GI50 (HOP-62) was > 100 µM (inactive), the GI50 (HOP-92) was > 100 µM (inactive) and the GI50 (HT-29) was > 100 µM (inactive). The GI50 (IGROV-1) was > 100 µM (inactive), the GI50 (K562) was > 100 µM (inactive) and the GI50 (KM-20L2) was > 100 µM (inactive). For the same compound, the GI50 (KM12) was > 100 µM (inactive), the GI50 (LOX IMVI) was > 100 µM (inactive) and the GI50 (LXFL 529) was > 100 µM (inactive). The GI50 (M14) was > 100 µM (inactive), the GI50 (M19-MEL) was > 100 µM (inactive) and the GI50 (MOLT-4) was > 100 µM (inactive). For the same compound, the GI50 (Malme-3M) was > 100 µM (inactive), the GI50 (NCI-H226) was > 100 µM (inactive) and the GI50 (NCI-H23) was > 100 µM (inactive). For the same compound, the GI50 (NCI-H460) was > 100 µM (inactive), the GI50 (NCI-H522) was > 100 µM (inactive) and the GI50 (OVCAR-3) was > 100 µM (inactive). For the same compound, the GI50 (OVCAR-4) was > 100 µM (inactive), the GI50 (OVCAR-5) was > 100 µM (inactive) and the GI50 (OVCAR-8) was > 100 µM (inactive). The GI50 (RXF 393) was > 100 µM (inactive), the GI50 (RXF 631) was > 100 µM (inactive) and the GI50 (SF-268) was > 100 µM (inactive). The GI50 (SF-295) was > 100 µM (inactive), the GI50 (SF-539) was > 100 µM (inactive) and the GI50 (SK-MEL-28) was > 100 µM (inactive). The GI50 (SK-MEL-2) was > 100 µM (inactive), the GI50 (SK-MEL-5) was > 100 µM (inactive) and the GI50 (SK-OV-3) was > 100 µM (inactive). The GI50 (SN12C) was > 100 µM (inactive), the GI50 (SNB-19) was > 100 µM (inactive) and the GI50 (SNB-75) was > 100 µM (inactive). The GI50 (SNB-78) was > 100 µM (inactive), the GI50 (SW-620) was > 100 µM (inactive) and the GI50 (TK-10) was > 100 µM (inactive). The GI50 (U-251) was > 100 µM (inactive), the GI50 (UACC-257) was > 100 µM (inactive) and the GI50 (UACC-62) was > 100 µM (inactive). The GI50 (UO-31) was > 100 µM (inactive).

In the case of `NCCCNCCS` [WR-1065], the GI50 (A549) is reported as > 100 µM (inactive), the GI50 (CAKI-1) is reported as > 100 µM (inactive) and the GI50 (DMS-273) is reported as > 100 µM (inactive). For the same compound, the GI50 (EKVX) was > 100 µM (inactive), the GI50 (HCC 2998) was > 100 µM (inactive) and the GI50 (HCT-15) was greater than 100 µM. The GI50 (HL-60) was > 100 µM (inactive), the GI50 (HOP-18) was > 100 µM (inactive) and the GI50 (HOP-92) was > 100 µM (inactive). For the same compound, the GI50 (HT-29) was > 100 µM (inactive), the GI50 (K562) was > 100 µM (inactive) and the GI50 (KM-20L2) was > 100 µM (inactive). The GI50 (KM12) was > 100 µM (inactive), the GI50 (LXFL 529) was > 100 µM (inactive) and the GI50 (M14) was > 100 µM (inactive). For the same compound, the GI50 (MOLT-4) was > 100 µM (inactive), the GI50 (OVCAR-4) was > 100 µM (inactive) and the GI50 (OVCAR-5) was > 100 µM (inactive). For the same compound, the GI50 (OVCAR-8) was > 100 µM (inactive), the GI50 (RXF 393) was > 100 µM (inactive) and the GI50 (RXF 631) was > 100 µM (inactive). The GI50 (SF-268) was > 100 µM (inactive), the GI50 (SF-295) was > 100 µM (inactive) and the GI50 (SK-MEL-2) was > 100 µM (inactive). For the same compound, the GI50 (SK-MEL-5) was > 100 µM (inactive), the GI50 (SK-OV-3) was > 100 µM (inactive) and the GI50 (SN12C) was > 100 µM (inactive). The GI50 (SNB-19) was > 100 µM (inactive), the GI50 (SNB-78) was > 100 µM (inactive) and the GI50 (TK-10) was > 100 µM (inactive). For the same compound, the GI50 (U-251) was > 100 µM (inactive), the GI50 (UACC-257) was > 100 µM (inactive) and the GI50 (UACC-62) was > 100 µM (inactive). For the same compound, the GI50 (UO-31) was > 100 µM (inactive) and the GI50 (XF498) was > 100 µM (inactive).
